“Also recorded” adds a separate entry of the source.
Biological target: T1, ESR1 (Homo sapiens, UniProt P03372)
T1 sequence (P03372 1-595): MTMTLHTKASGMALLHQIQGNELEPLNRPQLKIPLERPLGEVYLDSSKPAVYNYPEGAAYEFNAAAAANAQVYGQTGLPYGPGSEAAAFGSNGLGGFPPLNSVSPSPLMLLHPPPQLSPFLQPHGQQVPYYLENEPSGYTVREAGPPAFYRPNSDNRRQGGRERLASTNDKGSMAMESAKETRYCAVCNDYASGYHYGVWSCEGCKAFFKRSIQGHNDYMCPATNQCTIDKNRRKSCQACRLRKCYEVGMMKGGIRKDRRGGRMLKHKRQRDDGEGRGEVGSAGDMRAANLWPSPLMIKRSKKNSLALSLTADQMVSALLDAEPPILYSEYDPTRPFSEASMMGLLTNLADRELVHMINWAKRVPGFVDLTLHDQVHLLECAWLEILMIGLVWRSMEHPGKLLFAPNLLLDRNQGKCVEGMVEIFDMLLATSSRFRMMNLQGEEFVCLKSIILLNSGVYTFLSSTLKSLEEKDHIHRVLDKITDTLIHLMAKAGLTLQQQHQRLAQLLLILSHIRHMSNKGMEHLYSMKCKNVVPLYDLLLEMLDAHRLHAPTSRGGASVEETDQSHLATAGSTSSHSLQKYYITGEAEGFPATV
Assay: Mammalian two-hybrid conformational profiling of ESR1 with peptide probes in SKBR3 cells
Format: cell-based
Parameters: expressed in transfected cells; host or cells: SKBR3
Method: Triplicate wells of SKBR3 cells were transfected (Lipofectin per manufacturer's instructions) with plasmids expressing ERα fused to VP16 together with Gal4DBD alone (control) or fused to ER interacting peptides noted on the horizontal axis. Cells were then treated with RAD1901 (1 nM-1 μM) or the indicated ER ligands (100 nM). Interaction of ERα with the Gal4DBD peptide constructs was detected through activation of a Gal4 responsive luciferase reporter construct and was normalized to detected β-galactosidase activity generated by a co-transfected constitutive expression vector. Ligand classes recognized by each probe are indicated below the graph.
Mammalian 2-hybrid analysis of VP16-ESR1 with conformation-selective peptide probes was performed essentially as previously described (Wardell et al., (2012) Mol Endocrinol 26 (7):1235-1248).
The expression of ESR1 target genes responsive to (FIG. 10A) agonists, (FIG. 10B) primarily SERMs, or (FIG. 10C) SERMs and agonists was analyzed as in FIG. 5. Relative changes of these and additional target genes designed to evaluate dose dependent response to RAD1901 are presented in FIG. 11. Significant target gene regulation (*p<0.05) as compared to the vehicle control was detected by 2 way ANOVA followed by Fisher's LSD (Graphpad Prism 6). […] Triplicate wells of SKBR3 cells were transfected with plasmids expressing ESR1 fused to VP16 together with Gal4DBD alone (control) or Gal4DBD fused to ESR1 interacting peptides noted on the horizontal axis. Cells were then treated with the indicated ESR1 ligands (10^−7 M unless otherwise indicated). Interaction of ESR1 with the Gal4DBD peptide constructs was detected through activation of a Gal4-responsive luciferase reporter construct and was normalized to detected β-galactosidase activity expressed in a constitutive manner using a second vector. Normalized response was expressed as fold increase over the detected level of interaction between Gal4DBD alone and ESR1-VP16 in the absence of ligand (Veh). For FIG. 10E, the effect of SERMs and SERDs (10^−6 M) on the proliferation of MCF7 cells in response to E2 (10^−9 M) or insulin (2×10^−9 M) was evaluated as in FIG. 5. Statistically similar treatments (2-way ANOVA followed by Bonferroni comparison) are indicated by letters. […] The expression of ESR1 target genes responsive to (A) agonists, (B) primarily SERMs, or (C) SERMs and agonists was analyzed using RT qPCR following RNA isolation. mRNA expression was normalized (ΔΔCT analysis) to the similarly detected 36B4 housekeeping. The profiles presented in dendogram format were analyzed with the Ward hierarchical clustering algorithm (JMP 11) using standardized data.

SMILES: CCNCCc1ccc(CN(CC)c2cc(OC)ccc2[C@@H]2CCc3cc(O)ccc3C2)cc1 [RAD1901, (R)-6-{2-{ethyl[4-(2-ethylaminoethyl)benzyl]amino}-4-methoxyphenyl}-5,6,7,8-tetrahydronaphthalen-2-ol]
- ESR1 conformation / peptide interaction profile: induces a unique conformation of ERα; also recorded: completely distinct from any other known ligand
- interaction of αII peptide (hinge region surface): significant interaction
- interaction with peptides reporting ESR1 structures adopted upon binding tamoxifen (aβV) or ICI (βI2): No interaction was observed
- interaction with peptides that report on agonist activity (ASC1 and PGC1): decreased interaction

From patent US10420734B2, “Method of treating cancer using selective estrogen receptor modulators” (Duke University, priority 2014, dated 2019)
